This is an account of results in US8951993B2, “Phosphorus containing compounds as protein kinase inhibitors” (Jiangsu Hansoh Pharmaceutical Co., Ltd., priority 2011, dated 2015).

For orientation: IC50 means the concentration needed to halve the response being measured.

For data set [1], the target named is T1, ALK (Homo sapiens, UniProt Q9UM73). Description: Inhibition of ALK phosphorylation (sandwich ELISA, pY1604) in Karpas299 cells. The format is cell-based. On the set-up: NPM1 portion (fusion partner, nucleophosmin, P06748); host or cells: Karpas299; SU-DHL-1; the other entry of the earlier key: NPM1 (P06748, Nucleophosmin). The following applies: 1 hour, serum-free. The protocol: (§1) Karpas299 and SU-DHL-1 cells were purchased from Deutsche Sammlung von Mikroorganismen and Zellkulturen (Germany). H2228 was purchased from American Type Culture Collection (USA). All cells were cultured in the recommended medium and serum concentration. Cells were maintained at 37° C. in a humidified atmosphere with 5% CO2. For ALK kinase phosphorylation, cells were seeded in 96-well plates overnight in medium supplemented with 10% fetal bovine serum […]. After 24 hours, the medium was removed and cells were cultured in serum-free medium at 37° C. in the presence of various concentrations of the test articles for 1 hour. After incubation with the tested articles, cells were washed once with HBSS supplemented with 1 mM Na3VO4 and protein lysates were generated. Subsequently, phosphorylation of ALK was assessed by a sandwich ELISA method using an immobilized anti-total-ALK antibody and an anti-phospho-ALK antibody (pY1604) as a detection antibody. IC50 value was calculated using median-effect method. (Chou 2006).
Background: ELISA stands for enzyme-linked immunosorbent assay.
Target sequence in this assay (Q9UM73 with tags, fused parts or gaps): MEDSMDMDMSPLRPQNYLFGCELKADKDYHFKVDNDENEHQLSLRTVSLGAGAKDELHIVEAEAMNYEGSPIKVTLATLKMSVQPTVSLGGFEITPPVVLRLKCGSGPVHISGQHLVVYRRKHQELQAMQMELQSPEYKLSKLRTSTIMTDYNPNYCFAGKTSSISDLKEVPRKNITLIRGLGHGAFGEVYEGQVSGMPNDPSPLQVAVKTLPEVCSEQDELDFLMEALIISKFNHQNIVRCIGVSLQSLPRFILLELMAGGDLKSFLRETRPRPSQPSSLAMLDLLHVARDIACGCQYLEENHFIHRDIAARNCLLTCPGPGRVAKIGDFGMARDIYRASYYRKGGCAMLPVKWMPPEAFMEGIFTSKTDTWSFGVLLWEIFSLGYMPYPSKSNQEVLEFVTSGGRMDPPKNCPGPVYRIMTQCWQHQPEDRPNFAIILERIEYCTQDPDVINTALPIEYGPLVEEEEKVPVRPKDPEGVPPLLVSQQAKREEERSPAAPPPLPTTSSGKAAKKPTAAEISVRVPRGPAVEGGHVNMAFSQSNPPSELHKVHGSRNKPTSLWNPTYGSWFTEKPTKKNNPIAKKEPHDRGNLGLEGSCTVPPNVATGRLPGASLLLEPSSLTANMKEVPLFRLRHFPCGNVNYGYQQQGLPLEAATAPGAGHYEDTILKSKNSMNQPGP

The subject of data set [2] is SU-DHL-1. The data set is described as follows: Cell proliferation assay (MTS / BrdU), SU-DHL-1. The format is cell-based. The following applies: Homo sapiens, 72 hours, 2% FBS. The protocol:
as §1
(§2) For cell proliferation assay, cells were seeded in 96-well pates at low density at 37° C. in medium supplemented with 10% FBS and after 24 hours were switched to low serum medium (2% FBS). Cells were further incubated in the presence of the test articles at various concentrations at 37° C. for 72 hours. Two assays were employed to determine the relative cell numbers. One is a 3-(4,5-dimethylthiazol-2-yl)-5-(3-carboxymethoxyphenyl)-2-(4-sulfophenyl)-2H-tetrazolium (MTS) assay using a CellTiter 96® Aqueous Non-Radioactive Cell Proliferation kit (Promega), and the other is a BrdU incorporation assay using a DELFIA® Cell Proliferation Kit (Perkin Elmer). IC50 value was calculated using median-effect method (Chou 2006).

The target in data set [3] is T1, ALK. Description: Inhibition of ALK phosphorylation (sandwich ELISA, pY1604) in SU-DHL-1 cells. On the set-up: NPM1 portion (fusion partner, nucleophosmin, P06748); host or cells: Karpas299; SU-DHL-1; the other entry of the earlier key: NPM1 (P06748, Nucleophosmin). The format is cell-based. The following applies: 1 hour, serum-free. The protocol: as §1
Data set [4] deals with Karpas299. The data set is described as follows: Cell proliferation assay (MTS / BrdU), Karpas299. The format is cell-based. The following applies: Homo sapiens, KARPAS-299; 72 hours, 2% FBS. The protocol:
as §1, §2

Data set [5] has as its target T2, EML4-ALK (Homo sapiens, UniProt Q9UM73).
T2 construct: purchased Carna Biosciences (Chuo-ku, Kobe, Japan); the other entry of the earlier key: EML4 (Q9HC35, Echinoderm microtubule-associated protein-like 4)
The data set is described as follows: Off-chip mobility shift assay (Carna Biosciences), EML4-ALK. The format is biochemical. The protocol: (§3) The activities of ALK wild type, its mutant F1174L, R1275Q, L1196M and EML4-ALK, NPM1-ALK were also determined using off-chip mobility shift assay at Carna Biosciences (Chuo-ku, Kobe, Japan). In brief, 5 μL of ×4 compound solution, 5 μL of ×4 substrate/ATP/metal solution and 10 μL of ×2 kinase solution were prepared with assay buffer (20 mM HEPES, 0.01% Triton X-100, 2 mM DTT, pH 7.5) and mixed and incubated in a well of polypropylene 384 well microplate for 1 or 5 hours (depending on the enzyme). The ATP concentration used in the reaction was 50 μM for ALK wild type, F1174L mutant, EML4-ALK and NPM1-ALK, and 100 μM for R1275Q and 72 μM for L1196M. An aliquot of 60 μL of termination buffer (QuickScout Screening Assist MSA, Carna Biosciences) was added to each well to terminate the reactions. The reaction mixture was applied to LabChip3000 system (Caliper Life Science), and the product and substrate peptide peaks were separated and quantitated. The kinase reaction was evaluated by the product ratio calculated from peak heights of product (P) and substrate (S) peptides (P/(P+S)). IC50 value was calculated from concentration vs. % Inhibition curves by fitting to a four parameter logistic curve.

Data set [6] addresses T3, ALK mutant F1174L (Homo sapiens, UniProt Q9UM73, F1174L).
T3 construct: purchased Carna Biosciences (Chuo-ku, Kobe, Japan)
Description: Off-chip mobility shift assay (Carna Biosciences), ALK F1174L. Type of data set: biochemical. The protocol:
as §3

Data set [7] concerns the target T4, ALK mutant L1196M (Homo sapiens, UniProt Q9UM73, L1196M).
T4 construct: purchased Carna Biosciences (Chuo-ku, Kobe, Japan)
Description: Off-chip mobility shift assay (Carna Biosciences), ALK L1196M. Type of data set: biochemical. The protocol:
as §3

The target of data set [8] is T5, ALK wild type (Homo sapiens, UniProt Q9UM73).
T5 construct: purchased Carna Biosciences (Chuo-ku, Kobe, Japan)
T5 sequence (Q9UM73 19-1620): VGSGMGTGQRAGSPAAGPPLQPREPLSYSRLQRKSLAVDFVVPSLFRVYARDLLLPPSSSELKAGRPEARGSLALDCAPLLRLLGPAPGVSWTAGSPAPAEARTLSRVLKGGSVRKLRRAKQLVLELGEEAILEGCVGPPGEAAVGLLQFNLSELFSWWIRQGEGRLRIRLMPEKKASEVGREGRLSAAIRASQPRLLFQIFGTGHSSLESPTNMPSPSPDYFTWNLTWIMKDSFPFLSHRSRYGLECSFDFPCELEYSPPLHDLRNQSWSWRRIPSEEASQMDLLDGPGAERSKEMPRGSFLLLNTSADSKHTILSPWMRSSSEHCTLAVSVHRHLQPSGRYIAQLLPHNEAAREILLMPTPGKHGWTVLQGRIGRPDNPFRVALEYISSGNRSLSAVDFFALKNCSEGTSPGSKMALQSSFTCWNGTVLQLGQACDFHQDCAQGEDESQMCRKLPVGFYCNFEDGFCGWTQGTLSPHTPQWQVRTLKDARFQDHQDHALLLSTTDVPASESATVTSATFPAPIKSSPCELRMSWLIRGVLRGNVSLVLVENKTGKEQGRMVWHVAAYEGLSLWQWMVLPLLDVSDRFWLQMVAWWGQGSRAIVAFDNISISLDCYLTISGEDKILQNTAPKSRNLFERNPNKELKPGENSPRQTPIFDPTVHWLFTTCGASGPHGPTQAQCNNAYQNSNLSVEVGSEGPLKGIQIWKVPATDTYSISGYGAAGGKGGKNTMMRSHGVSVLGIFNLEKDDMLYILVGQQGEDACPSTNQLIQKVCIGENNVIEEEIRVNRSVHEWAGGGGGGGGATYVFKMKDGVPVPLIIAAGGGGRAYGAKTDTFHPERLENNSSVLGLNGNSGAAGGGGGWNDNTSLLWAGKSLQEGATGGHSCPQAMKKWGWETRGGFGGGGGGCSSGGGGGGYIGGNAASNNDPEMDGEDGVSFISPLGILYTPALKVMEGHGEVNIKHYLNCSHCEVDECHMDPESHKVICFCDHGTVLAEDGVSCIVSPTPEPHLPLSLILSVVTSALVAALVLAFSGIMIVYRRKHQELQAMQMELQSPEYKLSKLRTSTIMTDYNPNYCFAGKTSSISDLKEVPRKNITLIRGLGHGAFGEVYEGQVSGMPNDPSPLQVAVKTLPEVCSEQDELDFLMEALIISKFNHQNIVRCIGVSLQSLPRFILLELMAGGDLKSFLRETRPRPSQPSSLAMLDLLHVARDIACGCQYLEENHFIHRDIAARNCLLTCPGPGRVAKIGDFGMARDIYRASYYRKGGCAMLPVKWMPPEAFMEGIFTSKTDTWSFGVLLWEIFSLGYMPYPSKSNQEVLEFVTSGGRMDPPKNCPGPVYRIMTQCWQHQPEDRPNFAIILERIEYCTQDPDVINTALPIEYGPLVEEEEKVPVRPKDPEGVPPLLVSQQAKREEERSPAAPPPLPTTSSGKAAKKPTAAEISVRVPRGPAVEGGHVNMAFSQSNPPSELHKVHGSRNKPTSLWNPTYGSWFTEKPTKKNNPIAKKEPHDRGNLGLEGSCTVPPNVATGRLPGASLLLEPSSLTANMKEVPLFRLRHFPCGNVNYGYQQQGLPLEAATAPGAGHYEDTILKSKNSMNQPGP
Description: Off-chip mobility shift assay (Carna Biosciences), ALK wild type. Type of data set: biochemical. The protocol:
as §3

Data set [9] has as its target T6, NPM1-ALK (Homo sapiens, UniProt Q9UM73).
T6 construct: purchased Carna Biosciences (Chuo-ku, Kobe, Japan); the other entry of the earlier key: NPM1 (P06748, Nucleophosmin)
Description: Off-chip mobility shift assay (Carna Biosciences), NPM1-ALK. The format is biochemical. The method, then:
as §3

In data set [10] the test system is H2228. The data set is described as follows: Cell proliferation assay (MTS / BrdU), H2228. Type of data set: cell-based. The following applies: Homo sapiens, NCI-H2228; 72 hours, 2% FBS. The method, then: as §1, §2
Data set [11] has as its target T1, ALK. Description: Inhibition of ALK phosphorylation (sandwich ELISA, pY1604), cell line not given. The following applies: 1 hour, serum-free. The format is cell-based. On the set-up: fused on or other part: Q9HC35 (Echinoderm microtubule-associated protein-like 4). The method, then: as §1
Target sequence in this assay (Q9UM73 1058-1620 limits assumed): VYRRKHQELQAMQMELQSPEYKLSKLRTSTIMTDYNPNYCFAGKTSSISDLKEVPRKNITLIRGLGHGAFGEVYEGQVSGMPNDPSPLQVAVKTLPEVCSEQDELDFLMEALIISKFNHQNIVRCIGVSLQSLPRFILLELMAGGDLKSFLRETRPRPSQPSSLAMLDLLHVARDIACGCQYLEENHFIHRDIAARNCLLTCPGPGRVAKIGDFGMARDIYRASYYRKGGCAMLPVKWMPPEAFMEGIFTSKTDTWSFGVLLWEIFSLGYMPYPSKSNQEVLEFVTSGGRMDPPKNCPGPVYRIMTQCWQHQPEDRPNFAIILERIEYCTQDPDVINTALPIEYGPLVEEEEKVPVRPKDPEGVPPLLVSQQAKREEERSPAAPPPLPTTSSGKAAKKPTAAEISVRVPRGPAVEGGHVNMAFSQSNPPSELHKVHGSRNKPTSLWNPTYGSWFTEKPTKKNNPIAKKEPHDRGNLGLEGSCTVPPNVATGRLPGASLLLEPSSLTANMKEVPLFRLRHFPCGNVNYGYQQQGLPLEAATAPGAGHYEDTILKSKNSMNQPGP
In data set [12] the target is T7, ALK mutant R1275Q (Homo sapiens, UniProt Q9UM73, R1275Q).
T7 construct: purchased Carna Biosciences (Chuo-ku, Kobe, Japan)
T7 sequence (Q9UM73 19-1620 R1275Q): as the sequence (Q9UM73 19-1620) above, with R1257Q counted along it
Description: Off-chip mobility shift assay (Carna Biosciences), ALK R1275Q. Type of data set: biochemical. The method, then: as §3

Data set [13] relates to lung cancer cell line H2228. Description: H2228 xenograft studies in athymic mice. Type of data set: in vivo, athymic mice (nude/nud mouse). The source says:
Xenograft model was developed in athymic mice (nude/nud mouse) with lung cancer cell line H2228 purchased from the American Type Culture Collection Company (Manassas, Va., USA). In brief, H2228 cells (1×10^7) were implanted s.c. into the hind flank region of each mouse and allowed to grow to the designated size (c.a. 150-200 mm^3) before administration of the tested articles. The tested articles were given orally at various dose levels twice daily for 10-14 days. Tumor volume and body weight were measured during the experiments. Tumor regression values were determined using the standard approach.

In data set [14] the target is cytochrome P450 3A4 (Homo sapiens, UniProt P08684). The following applies: reported; causing clinical drug-drug interactions; cited from earlier work.
Sequence of cytochrome P450 3A4 (P08684 whole entry): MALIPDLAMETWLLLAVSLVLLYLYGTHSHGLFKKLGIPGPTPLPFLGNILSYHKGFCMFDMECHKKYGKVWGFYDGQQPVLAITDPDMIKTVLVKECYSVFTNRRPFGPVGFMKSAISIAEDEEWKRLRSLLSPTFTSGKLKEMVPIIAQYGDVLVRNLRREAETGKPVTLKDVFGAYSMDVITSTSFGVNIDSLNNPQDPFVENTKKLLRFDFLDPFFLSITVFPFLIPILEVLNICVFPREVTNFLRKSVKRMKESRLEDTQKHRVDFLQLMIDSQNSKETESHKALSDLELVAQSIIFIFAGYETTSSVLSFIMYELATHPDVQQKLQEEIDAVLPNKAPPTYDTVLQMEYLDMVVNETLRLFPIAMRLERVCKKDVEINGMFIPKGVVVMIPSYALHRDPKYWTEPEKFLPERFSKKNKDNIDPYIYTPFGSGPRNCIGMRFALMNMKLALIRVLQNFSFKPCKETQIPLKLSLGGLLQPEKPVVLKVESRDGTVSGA

Like-named read-outs stand apart in the source and are kept apart here. Some results are limits rather than exact numbers.

T4 sequence (Q9UM73 19-1620 L1196M): as the sequence (Q9UM73 19-1620) above, with L1178M counted along it
T3 sequence (Q9UM73 19-1620 F1174L): as the sequence (Q9UM73 19-1620) above, with F1156L counted along it
T2 sequence (Q9UM73 with tags, fused parts or gaps): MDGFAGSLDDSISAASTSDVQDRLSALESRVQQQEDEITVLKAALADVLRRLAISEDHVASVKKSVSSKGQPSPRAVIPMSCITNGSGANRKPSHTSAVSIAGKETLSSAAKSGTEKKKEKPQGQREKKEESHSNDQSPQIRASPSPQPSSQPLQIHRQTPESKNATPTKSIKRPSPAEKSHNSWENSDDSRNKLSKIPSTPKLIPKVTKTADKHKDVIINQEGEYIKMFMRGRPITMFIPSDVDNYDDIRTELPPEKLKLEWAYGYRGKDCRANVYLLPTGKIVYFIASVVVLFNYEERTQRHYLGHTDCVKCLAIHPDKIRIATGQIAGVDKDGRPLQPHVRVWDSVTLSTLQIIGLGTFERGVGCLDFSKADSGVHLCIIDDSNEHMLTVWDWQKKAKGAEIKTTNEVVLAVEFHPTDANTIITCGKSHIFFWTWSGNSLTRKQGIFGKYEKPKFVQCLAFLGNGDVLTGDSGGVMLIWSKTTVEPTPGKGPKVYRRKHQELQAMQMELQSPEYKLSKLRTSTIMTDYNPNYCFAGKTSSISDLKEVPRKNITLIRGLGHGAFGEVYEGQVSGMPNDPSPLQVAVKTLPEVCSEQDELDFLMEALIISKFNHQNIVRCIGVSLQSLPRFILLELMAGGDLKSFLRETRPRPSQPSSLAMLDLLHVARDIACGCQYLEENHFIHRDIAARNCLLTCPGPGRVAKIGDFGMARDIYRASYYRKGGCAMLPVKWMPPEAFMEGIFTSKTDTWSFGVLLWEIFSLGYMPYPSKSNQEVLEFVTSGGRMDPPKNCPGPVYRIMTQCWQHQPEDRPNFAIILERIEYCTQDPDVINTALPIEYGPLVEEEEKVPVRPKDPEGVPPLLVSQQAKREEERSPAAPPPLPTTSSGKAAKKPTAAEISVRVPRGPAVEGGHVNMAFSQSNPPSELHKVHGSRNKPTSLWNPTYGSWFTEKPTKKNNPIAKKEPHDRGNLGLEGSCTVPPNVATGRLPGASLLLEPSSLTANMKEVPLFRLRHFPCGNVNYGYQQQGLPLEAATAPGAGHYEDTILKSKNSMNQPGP

On to `C[C@@H](Oc1cc(-c2ccc(P(C)(C)=O)cc2F)cnc1N)c1c(Cl)ccc(F)c1Cl` [Example 25, 3-[(1R)-1-(2,6-dichloro-3-fluoro-phenyl)ethoxy]-5-(4-dimethylphosphoryl-2-fluoro-phenyl)pyridin-2-amine], for which the IC50 in data set [1] was less than 100 nM; in data set [2], less than 100 nM; in data set [3], less than 50 nM; in [4], less than 100 nM; in data set [5] (footnote #: EML4-ALK, read-out: IC50 ALK Kinase (# EML4-ALK)) it was less than 100 nM; in data set [5] (mobility shift, ATP 50 μM, read-out: IC50 EML4-ALK) it was less than 50 nM. Further, the IC50 in data set [6] (footnote #: F1174L, read-out: IC50 ALK Kinase (# mutant F1174L)) is less than 100 nM; in [6] (mobility shift, ATP 50 μM, read-out: IC50 ALK F1174L), less than 50 nM; in data set [7] (footnote #: L1196M, read-out: IC50 ALK Kinase (# mutant L1196M)), less than 100 nM; in data set [7] (mobility shift, ATP 72 μM, read-out: IC50 ALK L1196M), less than 50 nM; in data set [8] (footnote #: ALK wild type, read-out: IC50 ALK Kinase (# ALK wild type)), less than 100 nM; in [8] (mobility shift, ATP 50 μM, read-out: IC50 ALK wild type), less than 50 nM. Further, the IC50 is less than 100 nM in [9] (footnote #: NPM1-ALK, read-out: IC50 ALK Kinase (# NPM1-ALK)); less than 50 nM in [9] (mobility shift, ATP 50 μM, read-out: IC50 NPM1-ALK); less than 100 nM in data set [10]; less than 50 nM in data set [11]; less than 100 nM in data set [12] (footnote #: R1275Q, read-out: IC50 ALK Kinase (# mutant R1275Q)); less than 50 nM in [12] (mobility shift, ATP 100 μM, read-out: IC50 ALK R1275Q). Besides, the “inhibition of tumor growth compared to the vehicle control” value in data set [13] (6 mg/kg oral BID) was found to be 46%; in [13] (20 mg/kg oral BID), 73%; in data set [13] (60 mg/kg oral BID), 93%. Further, the “reduced the tumor size” value in data set [13] (14 days oral dosing at 60 mg/kg (BID)) is “approximately 80%”.

For `C[C@@H](Oc1cc(-c2cnn(C3CCNCC3)c2)cnc1N)c1c(Cl)ccc(F)c1Cl` [crizotinib], the “cytochrome P450 3A4 inhibition” value in data set [14] is “time-dependent cytochrome P450 3A4 inhibitor”.
